These results are taken from ChEMBL document CHEMBL1137293, “Discovery of oxadiazoyl tertiary carbinamine inhibitors of beta-secretase (BACE-1)” (J Med Chem, 2006).

Structures are written as SMILES. pIC50: −log10 of the molar value.

Beta-secretase 1, sequence (P56817 whole entry): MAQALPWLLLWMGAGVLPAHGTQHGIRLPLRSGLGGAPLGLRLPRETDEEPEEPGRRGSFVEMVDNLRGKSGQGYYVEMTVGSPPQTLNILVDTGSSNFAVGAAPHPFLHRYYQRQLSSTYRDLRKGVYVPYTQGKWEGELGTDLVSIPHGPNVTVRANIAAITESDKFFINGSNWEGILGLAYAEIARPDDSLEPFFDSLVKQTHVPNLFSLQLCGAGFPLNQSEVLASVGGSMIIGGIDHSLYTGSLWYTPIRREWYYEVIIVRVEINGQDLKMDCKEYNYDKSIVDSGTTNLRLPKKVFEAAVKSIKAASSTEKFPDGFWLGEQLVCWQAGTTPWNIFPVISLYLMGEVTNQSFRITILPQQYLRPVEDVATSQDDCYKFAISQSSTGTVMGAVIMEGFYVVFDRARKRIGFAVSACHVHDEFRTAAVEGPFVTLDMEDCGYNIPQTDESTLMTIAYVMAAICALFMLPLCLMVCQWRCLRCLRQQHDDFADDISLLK

The test has as its target Beta-secretase 1 (Homo sapiens, UniProt P56817). Put plainly: Inhibition of BACE1.
On to `C[C@@H](NC(=O)c1cc(C2=NC(CO)(Cc3ccccc3)CO2)cc(N(C)S(C)(=O)=O)c1)c1ccc(F)cc1` (stereo not given in full), for which the negative logarithm of the IC50 (pIC50) was 4.90.

Take `C[C@@H](NC(=O)c1cc(COC(=O)[C@](C)(N)Cc2ccccc2)cc(N(C)S(C)(=O)=O)c1)c1ccc(F)cc1`: the pIC50 was 7.57.

`C[C@@H](NC(=O)c1cc(C(=O)NC(CO)(CO)Cc2ccccc2)cc(N(C)S(C)(=O)=O)c1)c1ccc(F)cc1`: the pIC50 is 5.57. This pIC50 is 2.00 log units lower than that of the molecule before.

The molecule `C[C@@H](NC(=O)c1cc(COC[C@](C)(N)Cc2ccccc2)cc(N(C)S(C)(=O)=O)c1)c1ccc(F)cc1` had a pIC50 of 6.37.

The molecule `C[C@@H](NC(=O)c1cc(COC[C@@](N)(CO)Cc2ccccc2)cc(N(C)S(C)(=O)=O)c1)c1ccc(F)cc1` had a pIC50 of 5.86.

By pIC50 is commonly meant the IC50 on a negative log10 scale, so that one unit is a factor of ten.
